Reference: patent US9121846B2, “Daikenchuto bioassay method and quality management method using same” (TSUMURA & Co., priority 2010, dated 2015)

Tested on: Rat pancreatic cancer cell line RIN-14B
Assay: Serotonin (5-HT) release test in cultured serotonin-producing cells, 5-HT measured by EIA
Type: cell-based
Conditions: positive control, final concentration 100 μmol/L, 1 hour culture
Procedure: The crude drug mixture of the proportions presented in Table 1 was extracted by heating at 100° C. for 1 hour with purified water used in 10 times the amount of the mixture weight, and the extract was processed into a powder to obtain a Koi-free Daikenchuto extract powder. The Koi-free Daikenchuto extract powder was used to prepare a 100 mg/mL DMSO suspension, and the suspension was mixed with an 88.8 mg/mL maltose aqueous solution at a 1:9 ratio to prepare a […] Daikenchuto solution. The solution was diluted with 0.1% BSA-Hanks buffer* to make the concentration 9 mg/mL and subjected to 15-min sonication to prepare a Daikenchuto test sample.
Separately, a DMSO solution of 100 mmol/L AITC was prepared as a positive control sample by adding allyl isothiocyanate (AITC; Wako Pure Chemical Industries, Ltd.) to DMSO. […]
The plate was washed three times with a washing buffer attached to the kit (300 μL/well) to remove the free components. […] After confirming the development of color, the reaction was stopped by adding a reaction stopper ([…] and the absorbance at 405 nm was measured. The results are presented in FIG. 1.

C=CCN=C=S [AITC, allyl isothiocyanate]
5-HT concentration compared with the control: evidently higher
